Measurements from patent US20240270821A1, “GIP/GLP1/GCG TRI-RECEPTOR AGONISTS AND USES THEREOF” (priority 2023, published 2024).
pEC50: −log10 of the molar value. Starred links: 1 amine or outer side, 2 acyl side, 3 side chain; linkers in the order of their positions; H or OH if unused. Non-standard residues stand in square brackets, D forms with d. Groups on a side chain read outwards from the residue. *: point of attachment. C18 diacid = O=C(O)CCCCCCCCCCCCCCCCC(=O)*; γGlu = O=C(O)[C@H](CCC(=O)[*:2])N[*:1]; αMe4Pal = C[C@](N)(Cc1ccncc1)C(=O)O; αMeY = C[C@](N)(Cc1ccc(O)cc1)C(=O)O; 4Pal = N[C@@H](Cc1ccncc1)C(=O)O; αMeL = CC(C)C[C@](C)(N)C(=O)O; Orn = NCCC[C@H](N)C(=O)O; AEEA = NCCOCCOCC(=O)O; Aib = CC(C)(N)C(=O)O

Columns and labels:
Assay type in all cases: cell-based
[1] = target: human GcgR (Homo sapiens, UniProt P47871); test: Functional cAMP activity in the presence of 1% HSA; details: read-out: cAMP Rel EC50, hGcgR
Sequence of human GcgR (P47871 26-477): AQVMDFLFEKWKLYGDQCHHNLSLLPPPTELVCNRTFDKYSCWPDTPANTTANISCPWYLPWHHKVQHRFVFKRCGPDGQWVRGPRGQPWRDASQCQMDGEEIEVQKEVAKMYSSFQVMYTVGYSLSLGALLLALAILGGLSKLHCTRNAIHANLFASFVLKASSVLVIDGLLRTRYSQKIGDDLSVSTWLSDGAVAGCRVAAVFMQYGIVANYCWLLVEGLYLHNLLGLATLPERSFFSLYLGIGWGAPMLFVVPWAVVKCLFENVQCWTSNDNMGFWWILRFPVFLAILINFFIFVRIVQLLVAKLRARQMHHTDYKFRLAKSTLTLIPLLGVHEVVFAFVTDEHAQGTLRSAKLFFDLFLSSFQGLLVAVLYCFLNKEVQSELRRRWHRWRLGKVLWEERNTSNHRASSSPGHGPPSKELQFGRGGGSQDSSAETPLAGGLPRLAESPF

[2] = target: T1, hGIPR (Homo sapiens, UniProt P48546); test: Functional cAMP activity in the presence of 1% HSA; details: read-out: cAMP Rel EC50, hGIPR
T1 sequence (P48546 22-466): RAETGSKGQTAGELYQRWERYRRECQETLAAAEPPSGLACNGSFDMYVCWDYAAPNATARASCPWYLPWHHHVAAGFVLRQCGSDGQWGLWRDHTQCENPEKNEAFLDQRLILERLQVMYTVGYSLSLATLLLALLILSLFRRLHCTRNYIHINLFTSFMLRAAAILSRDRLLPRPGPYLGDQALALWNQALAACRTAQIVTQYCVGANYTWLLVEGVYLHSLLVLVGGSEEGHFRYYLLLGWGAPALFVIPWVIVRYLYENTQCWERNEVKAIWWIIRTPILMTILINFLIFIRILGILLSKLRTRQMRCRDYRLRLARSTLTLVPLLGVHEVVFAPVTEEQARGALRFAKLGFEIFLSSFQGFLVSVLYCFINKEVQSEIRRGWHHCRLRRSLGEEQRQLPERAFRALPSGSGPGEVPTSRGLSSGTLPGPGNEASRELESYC

[3] = target: hGcgR (Homo sapiens, UniProt P47871); test: Functional cAMP activation in the presence of 0.1% casein (no HSA); details: in the presence of 0.1% casein (no HSA); geometric mean; read-out: Relative cAMP EC50, hGcgR;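 also: intracellular cAMP rise after 30 min at 37 °C, read by HTRF against a cAMP standard curve, scaled from buffer only (0%) to maximal control ligand response (100%)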
Sequence of hGcgR (P47871 26-477): as the sequence (P47871 26-477) above

[4] = target: T2, hGLP-1R (Homo sapiens, UniProt P43220); test: as above; details: in the presence of 0.1% casein (no HSA); geometric mean; read-out: Relative cAMP EC50, hGLP-1R;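 also: intracellular cAMP rise after 30 min at 37 °C read by HTRF, normalized between buffer only (0%) and maximal control ligand (100%), four-parameter variable-slope fit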
T2 sequence (P43220 24-463): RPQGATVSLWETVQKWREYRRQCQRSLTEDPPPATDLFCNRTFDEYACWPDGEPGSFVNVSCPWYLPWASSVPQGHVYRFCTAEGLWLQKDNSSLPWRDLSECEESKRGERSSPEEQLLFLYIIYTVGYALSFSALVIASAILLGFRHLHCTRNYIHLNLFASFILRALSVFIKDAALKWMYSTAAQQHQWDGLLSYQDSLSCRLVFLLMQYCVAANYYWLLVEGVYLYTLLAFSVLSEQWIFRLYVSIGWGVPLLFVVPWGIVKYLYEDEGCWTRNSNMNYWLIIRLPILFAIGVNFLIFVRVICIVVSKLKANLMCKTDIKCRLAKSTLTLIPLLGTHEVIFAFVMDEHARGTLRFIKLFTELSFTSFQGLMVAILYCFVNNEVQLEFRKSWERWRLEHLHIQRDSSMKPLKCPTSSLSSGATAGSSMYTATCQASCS

[5] = target: T2, hGLP-1R; test: Functional cAMP activity in the presence of 1% HSA; details: read-out: cAMP Rel EC50, hGLP-1R
[6] = target: T1, hGIPR; test: Functional cAMP activation in the presence of 0.1% casein (no HSA); details: in the presence of 0.1% casein (no HSA); geometric mean; read-out: Relative cAMP EC50, hGIPR;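 as to Relative cAMP EC50, hGIPR: intracellular cAMP rise after 30 min at 37 °C read by HTRF against a standard curve, scaled between buffer alone (0%) and top control ligand concentration (100%), four-parameter fit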;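 as to Relative cAMP EC50, hGLP-1R: intracellular cAMP rise after 30 min at 37 °C read by HTRF, normalized between buffer only (0%) and maximal control ligand (100%), four-parameter variable-slope fit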

Substance | pEC50 [1] | pEC50 [2] | pEC50 [3] | pEC50 [4] | pEC50 [5] | pEC50 [6]
H-Y[Aib]QGTFTSD[4Pal]SQ[αMeL]LDKK([γGlu-γGlu-C18 diacid])AQ[αMe4Pal]QFIE[αMeY]LIEGGPSSGAPPPSGS-NH2 [Example 934] | 5.86 | 7.55 | 8.56 | 9.19 | 6.76 | 10.13
H-Y[Aib]QGTFTSD[4Pal]SQ[αMeL]LDKK([γGlu-γGlu-γGlu-C18 diacid])AQ[αMe4Pal]AFIEYLIE[Aib]GPSSGAPPPSGS-NH2 [Example 859] | 5.65 | 7.49 | 8.07 | 8.62 | 6.27 | 9.92
H-Y[Aib]QGTFTSD[4Pal]SQ[αMeL]LD[Orn]K([AEEA-γGlu-C18 diacid])AQ[Aib]AFIE[αMeY]LIEGGPSSGAPPPSGS-NH2 [Example 850] | 5.44 | 7.57 | 7.55 | 9.35 | 7.24 | 9.46
H-Y[Aib]QGTFTSD[4Pal]SQ[αMeL]LD[Orn]K([AEEA-γGlu-C18 diacid])AQ[Aib]AFIE[αMeY]LLEGGPSSGAPPPSGS-NH2 [Example 911] | 5.62 | 7.58 | 8.02 | 8.96 | 6.59 | 9.71
H-Y[Aib]QGTFTSD[4Pal]SQ[αMeL]LD[Orn]K([AEEA-γGlu-C18 diacid])AQ[αMe4Pal]AFIEYLIA[Aib]GPSSGEPPPSGSEE-NH2 [Example 1095] | 6.47 | 8.06 | 8.56 | 8.93 | 6.80 | 10.19
H-Y[Aib]QGTFTSD[4Pal]SQ[αMeL]LD[Orn]K([AEEA-γGlu-C18 diacid])AQ[αMe4Pal]AFIEYLIQ[Aib]GPSSGEPPPSGSEE-NH2 [Example 1096] | 6.40 | 7.94 | 8.40 | 8.83 | 6.71 | 10.10
H-Y[Aib]QGTFTSD[4Pal]SQ[αMeL]LD[Orn]K([AEEA-γGlu-C18 diacid])AQ[αMe4Pal]AFIE[αMeY]LIA[Aib]GPSSGAPPPSGSEE-NH2 [Example 1110] | 6.35 | 8.27 | 8.23 | 9.29 | 7.28 | 10.23
H-Y[Aib]QGTFTSD[4Pal]SQ[αMeL]LD[Orn]K([AEEA-γGlu-C18 diacid])AQ[αMe4Pal]AFIE[αMeY]LIA[Aib]GPSSGEPPPSGSEE-NH2 [Example 1099] | 6.33 | 8.06 | 8.46 | 9.14 | 7.12 | 10.12
H-Y[Aib]QGTFTSD[4Pal]SQ[αMeL]LD[Orn]K([AEEA-γGlu-C18 diacid])AQ[αMe4Pal]AFIE[αMeY]LIEGGPSSGAPPPSGS-NH2 [Example 849] | 5.94 | 7.44 | 8.18 | 9.18 | 6.95 | 9.51
H-Y[Aib]QGTFTSD[4Pal]SQ[αMeL]LD[Orn]K([AEEA-γGlu-C18 diacid])AQ[αMe4Pal]AFIE[αMeY]LIEGGPSSGAPPPSGSEE-NH2 [Example 1041] | 5.76 | 7.12 | 8.11 | 8.91 | 6.50 | 9.44
H-Y[Aib]QGTFTSD[4Pal]SQ[αMeL]LD[Orn]K([AEEA-γGlu-C18 diacid])AQ[αMe4Pal]AFIE[αMeY]LIE[Aib]GPSSGAPPPSGSEE-NH2 [Example 1108] | 6.33 | 8.28 | 8.30 | 9.12 | 7.12 | 10.29
H-Y[Aib]QGTFTSD[4Pal]SQ[αMeL]LD[Orn]K([AEEA-γGlu-C18 diacid])AQ[αMe4Pal]AFIE[αMeY]LIE[Aib]GPSSGEPPPSGSEE-NH2 [Example 1097] | 6.12 | 7.56 | 8.21 | 8.80 | 6.85 | 9.87
